For assay [1], the target named is human CB1 receptor (hCB1) (Homo sapiens, UniProt P21554). Put plainly: cell-based. The class given is cell-based. An outline of the steps: (§1)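 Agonism or inverse agonism was assessed as change in intracellular cAMP in CHO-K1 cells expressing human CB1 or rat CB2 (genomic DNA, pcDNA3.1).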
The target of the next assay is T1, rat CB2 receptor (rCB2) (Rattus norvegicus, UniProt Q9QZN9).
T1 sequence (Q9QZN9 1-360): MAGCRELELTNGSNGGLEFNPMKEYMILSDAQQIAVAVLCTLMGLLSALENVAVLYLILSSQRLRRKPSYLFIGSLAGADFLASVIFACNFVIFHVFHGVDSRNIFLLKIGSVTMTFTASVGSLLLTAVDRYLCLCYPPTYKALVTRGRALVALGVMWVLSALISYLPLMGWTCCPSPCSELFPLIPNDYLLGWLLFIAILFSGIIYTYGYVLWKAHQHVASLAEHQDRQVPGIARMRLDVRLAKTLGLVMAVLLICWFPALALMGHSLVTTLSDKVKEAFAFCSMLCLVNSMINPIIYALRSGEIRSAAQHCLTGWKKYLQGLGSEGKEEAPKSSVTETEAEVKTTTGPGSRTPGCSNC
Put plainly: cell-based. Particulars: for +/− RCB2: agonist or inverse agonist at rCB2. The assay is classed as cell-based. In a few lines:
as §1

human CB1 receptor (hCB1), sequence (P21554 whole entry): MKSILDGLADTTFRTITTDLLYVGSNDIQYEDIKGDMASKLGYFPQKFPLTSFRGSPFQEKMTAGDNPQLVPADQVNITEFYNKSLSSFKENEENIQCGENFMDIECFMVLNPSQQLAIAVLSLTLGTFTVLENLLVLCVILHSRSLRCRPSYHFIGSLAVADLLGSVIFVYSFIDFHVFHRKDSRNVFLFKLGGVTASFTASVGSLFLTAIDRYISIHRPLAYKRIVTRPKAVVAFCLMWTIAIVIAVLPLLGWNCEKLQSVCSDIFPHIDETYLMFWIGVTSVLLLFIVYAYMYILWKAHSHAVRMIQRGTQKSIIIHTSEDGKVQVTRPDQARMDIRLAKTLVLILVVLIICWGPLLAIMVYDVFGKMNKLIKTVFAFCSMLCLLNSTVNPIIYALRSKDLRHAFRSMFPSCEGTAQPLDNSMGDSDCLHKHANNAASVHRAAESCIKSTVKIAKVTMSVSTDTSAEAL

For the molecule `CNC(=O)[C@@H](NC(=O)c1nc(-c2cc(Cl)ccc2OC)n2c1CN(C)CCC2)C(C)(C)C` [Compound 327, (S)-3-(5-chloro-2-methoxyphenyl)-N-(3,3-dimethyl-1-(methylamino)-1-oxobutan-2-yl)-8-methyl-6,7,8,9-tetrahydro-5H-imidazo[1,5-a][1,4]diazepine-1-carboxamide], in assay [1], the EC50 is > 10 µM. Besides, at rat CB2 receptor (rCB2), the “+/− RCB2” value is “+”.

Turning to `CNC(=O)[C@@H](NC(=O)c1nc(-c2cccc(C#N)c2)n2c1CN(C)CCC2)C(C)(C)C` [Compound 328, (S)-3-(3-cyanophenyl)-N-(3,3-dimethyl-1-(methylamino)-1-oxobutan-2-yl)-8-methyl-6,7,8,9-tetrahydro-5H-imidazo[1,5-a][1,4]diazepine-1-carboxamide], the EC50 in assay [1] is > 10 µM. For the same molecule, the “+/− RCB2” value on rat CB2 receptor (rCB2) is “+”.

As to `CNC(=O)[C@@H](NC(=O)c1nc(-c2ccsc2)n2c1CN(C)CCC2)C(C)(C)C` [Compound 329, (S)-N-(3,3-dimethyl-1-(methylamino)-1-oxobutan-2-yl)-8-methyl-3-(thiophen-3-yl)-6,7,8,9-tetrahydro-5H-imidazo[1,5-a][1,4]diazepine-1-carboxamide], the EC50 in assay [1] was > 10 µM. Also, the “+/− RCB2” value at rat CB2 receptor (rCB2) is “+”.

`CNC(=O)[C@@H](NC(=O)c1nc(-c2ccc(C(F)(F)F)cc2)n2c1CN(C)CCC2)C(C)(C)C` [Compound 330, (S)-N-(3,3-dimethyl-1-(methylamino)-1-oxobutan-2-yl)-8-methyl-3-(4-(trifluoromethyl)phenyl)-6,7,8,9-tetrahydro-5H-imidazo[1,5-a][1,4]diazepine-1-carboxamide]: the EC50 in assay [1] is > 10 µM. On rat CB2 receptor (rCB2), the “+/− RCB2” value was “−”.

For `CNC(=O)[C@@H](NC(=O)c1nc(-c2cc(F)cc(F)c2)n2c1CN(C)CCC2)C(C)(C)C` [Compound 331, (S)-3-(3,5-difluorophenyl)-N-(3,3-dimethyl-1-(methylamino)-1-oxobutan-2-yl)-8-methyl-6,7,8,9-tetrahydro-5H-imidazo[1,5-a][1,4]diazepine-1-carboxamide], the EC50 in assay [1] was > 10 µM. The “+/− RCB2” value on rat CB2 receptor (rCB2) was “+”.

Consider `CNC(=O)[C@@H](NC(=O)c1nc(-c2ccc(C)cc2)n2c1CN(C)CCC2)C(C)(C)C` [Compound 332, (S)-N-(3,3-dimethyl-1-(methylamino)-1-oxobutan-2-yl)-8-methyl-3-p-tolyl-6,7,8,9-tetrahydro-5H-imidazo[1,5-a][1,4]diazepine-1-carboxamide], for which the EC50 (in assay [1]; at rat CB2 receptor (rCB2)) was > 10 µM throughout.

As to `CNC(=O)[C@@H](NC(=O)c1nc(-c2ccccc2OC(F)(F)F)n2c1CN(C)CCC2)C(C)(C)C` [Compound 333, (S)-N-(3,3-dimethyl-1-(methylamino)-1-oxobutan-2-yl)-8-methyl-3-(2-(trifluoromethoxy)phenyl)-6,7,8,9-tetrahydro-5H-imidazo[1,5-a][1,4]diazepine-1-carboxamide], the EC50 in assay [1] is > 10 µM. Further, the “+/− RCB2” value on rat CB2 receptor (rCB2) is recorded as “+”.

Consider `CNC(=O)[C@@H](NC(=O)c1nc(-c2ccc(C)c(Cl)c2)n2c1CN(C)CCC2)C(C)(C)C` [Compound 334, (S)-3-(3-chloro-4-methylphenyl)-N-(3,3-dimethyl-1-(methylamino)-1-oxobutan-2-yl)-8-methyl-6,7,8,9-tetrahydro-5H-imidazo[1,5-a][1,4]diazepine-1-carboxamide], for which the EC50 (in assay [1]; on rat CB2 receptor (rCB2)) was > 10 µM each time.

For the molecule `CNC(=O)[C@@H](NC(=O)c1nc(-c2cc(C)ccc2Cl)n2c1CN(C)CCC2)C(C)(C)C` [Compound 335, (S)-3-(2-chloro-5-methylphenyl)-N-(3,3-dimethyl-1-(methylamino)-1-oxobutan-2-yl)-8-methyl-6,7,8,9-tetrahydro-5H-imidazo[1,5-a][1,4]diazepine-1-carboxamide], the EC50 (in assay [1]; at rat CB2 receptor (rCB2)) was > 10 µM each time.

Regarding `CNC(=O)[C@@H](NC(=O)c1nc(/C=C/c2ccccc2)n2c1CN(C)CCC2)C(C)(C)C` [Compound 336, (S,E)-N-(3,3-dimethyl-1-(methylamino)-1-oxobutan-2-yl)-8-methyl-3-styryl-6,7,8,9-tetrahydro-5H-imidazo[1,5-a][1,4]diazepine-1-carboxamide], the EC50 in assay [1] is > 10 µM. For the same molecule, the “+/− RCB2” value at rat CB2 receptor (rCB2) is on record as “−”.

For `CNC(=O)[C@@H](NC(=O)c1nc(-c2ccc(F)cc2Cl)n2c1CN(C)CCC2)C(C)(C)C` [Compound 337, (S)-3-(2-chloro-4-fluorophenyl)-N-(3,3-dimethyl-1-(methylamino)-1-oxobutan-2-yl)-8-methyl-6,7,8,9-tetrahydro-5H-imidazo[1,5-a][1,4]diazepine-1-carboxamide], the EC50 in assay [1] was > 10 µM. Also, at rat CB2 receptor (rCB2), the “+/− RCB2” value was “+”.

As for `CNC(=O)[C@@H](NC(=O)c1nc(-c2cccc(OC(F)(F)F)c2)n2c1CN(C)CCC2)C(C)(C)C` [Compound 338, (S)-N-(3,3-dimethyl-1-(methylamino)-1-oxobutan-2-yl)-8-methyl-3-(3-(trifluoromethoxy)phenyl)-6,7,8,9-tetrahydro-5H-imidazo[1,5-a][1,4]diazepine-1-carboxamide], the EC50 (in assay [1]; at rat CB2 receptor (rCB2)) was > 10 µM in each case.

In the case of `CNC(=O)[C@@H](NC(=O)c1nc(-c2ccc(OC(F)(F)F)cc2)n2c1CN(C)CCC2)C(C)(C)C` [Compound 339, (S)-N-(3,3-dimethyl-1-(methylamino)-1-oxobutan-2-yl)-8-methyl-3-(4-(trifluoromethoxy)phenyl)-6,7,8,9-tetrahydro-5H-imidazo[1,5-a][1,4]diazepine-1-carboxamide], in assay [1], the EC50 was > 10 µM. Also, the “+/− RCB2” value at rat CB2 receptor (rCB2) is listed as “−”.

As to `CNC(=O)[C@@H](NC(=O)c1nc(-c2ccc(C)cc2F)n2c1CN(C)CCC2)C(C)(C)C` [Compound 340, (S)-N-(3,3-dimethyl-1-(methylamino)-1-oxobutan-2-yl)-3-(2-fluoro-4-methylphenyl)-8-methyl-6,7,8,9-tetrahydro-5H-imidazo[1,5-a][1,4]diazepine-1-carboxamide], in assay [1], the EC50 is > 10 µM. In addition, the “+/− RCB2” value at rat CB2 receptor (rCB2) is “+”.

Take `CNC(=O)[C@@H](NC(=O)c1nc(-c2ccc3c(c2)OCO3)n2c1CN(C)CCC2)C(C)(C)C` [Compound 341, (S)-3-(benzo[d][1,3]dioxol-5-yl)-N-(3,3-dimethyl-1-(methylamino)-1-oxobutan-2-yl)-8-methyl-6,7,8,9-tetrahydro-5H-imidazo[1,5-a][1,4]diazepine-1-carboxamide]: in assay [1], the EC50 was > 10 µM. For the same molecule, on rat CB2 receptor (rCB2), the “+/− RCB2” value is listed as “−”.

Consider `CNC(=O)[C@@H](NC(=O)c1nc(-c2ccc(C#N)cc2)n2c1CN(C)CCC2)C(C)(C)C` [Compound 342], for which the concentration for a half-maximal effect (EC50) (in assay [1]; on rat CB2 receptor (rCB2)) was > 10 µM each time.

As to `CNC(=O)[C@@H](NC(=O)c1nc(-c2ccc(OC)cc2C)n2c1CN(C)CCC2)C(C)(C)C` [Compound 343, (S)-N-(3,3-dimethyl-1-(methylamino)-1-oxobutan-2-yl)-3-(4-methoxy-2-methylphenyl)-8-methyl-6,7,8,9-tetrahydro-5H-imidazo[1,5-a][1,4]diazepine-1-carboxamide], the EC50 (in assay [1]; on rat CB2 receptor (rCB2)) was > 10 µM throughout.

`CNC(=O)[C@@H](NC(=O)c1nc(-c2cnc(OC)nc2OC)n2c1CN(C)CCC2)C(C)(C)C` [Compound 344, (S)-3-(2,4-dimethoxypyrimidin-5-yl)-N-(3,3-dimethyl-1-(methylamino)-1-oxobutan-2-yl)-8-methyl-6,7,8,9-tetrahydro-5H-imidazo[1,5-a][1,4]diazepine-1-carboxamide]: the EC50 (in assay [1]; at rat CB2 receptor (rCB2)) was > 10 µM each time.

As to `CNC(=O)[C@@H](NC(=O)c1nc(-c2cccc(F)c2)n2c1CN(C)CCC2)C(C)(C)C` [Compound 345, (S)-N-(3,3-dimethyl-1-(methylamino)-1-oxobutan-2-yl)-3-(3-fluorophenyl)-8-methyl-6,7,8,9-tetrahydro-5H-imidazo[1,5-a][1,4]diazepine-1-carboxamide], the EC50 in assay [1] was > 10 µM. In addition, the “+/− RCB2” value at rat CB2 receptor (rCB2) is “+”.

Regarding `CNC(=O)[C@@H](NC(=O)c1nc(-c2cccc(OC)c2F)n2c1CN(C)CCC2)C(C)(C)C` [Compound 346, (S)-N-(3,3-dimethyl-1-(methylamino)-1-oxobutan-2-yl)-3-(2-fluoro-3-methoxyphenyl)-8-methyl-6,7,8,9-tetrahydro-5H-imidazo[1,5-a][1,4]diazepine-1-carboxamide], the EC50 in assay [1] was > 10 µM. Further, at rat CB2 receptor (rCB2), the “+/− RCB2” value is on record as “−”.

`CNC(=O)[C@@H](NC(=O)c1nc(-c2ccc(F)c(C)c2)n2c1CN(C)CCC2)C(C)(C)C` [Compound 347, (S)-N-(3,3-dimethyl-1-(methylamino)-1-oxobutan-2-yl)-3-(4-fluoro-3-methylphenyl)-8-methyl-6,7,8,9-tetrahydro-5H-imidazo[1,5-a][1,4]diazepine-1-carboxamide]: the EC50 (in assay [1]; at rat CB2 receptor (rCB2)) was > 10 µM each time.

Consider `CNC(=O)[C@@H](NC(=O)c1nc(-c2cccnc2)n2c1CN(C)CCC2)C(C)(C)C` [Compound 348, (S)-N-(3,3-dimethyl-1-(methylamino)-1-oxobutan-2-yl)-8-methyl-3-(pyridin-3-yl)-6,7,8,9-tetrahydro-5H-imidazo[1,5-a][1,4]diazepine-1-carboxamide], for which the EC50 in assay [1] is > 10 µM. For the same molecule, the “+/− RCB2” value at rat CB2 receptor (rCB2) is on record as “+”.

With `CNC(=O)[C@@H](NC(=O)c1nc(-c2cccs2)n2c1CN(C)CCC2)C(C)(C)C` [Compound 349, (S)-N-(3,3-dimethyl-1-(methylamino)-1-oxobutan-2-yl)-8-methyl-3-(thiophen-2-yl)-6,7,8,9-tetrahydro-5H-imidazo[1,5-a][1,4]diazepine-1-carboxamide], in assay [1], the EC50 was > 10 µM. Moreover, the “+/− RCB2” value at rat CB2 receptor (rCB2) is “+”.

Source of the values: US7517874B2 (priority 2007, dated 2009).
